Measurements as given in US20240116985A1, “STAPLED PEPTIDES AND METHODS THEREOF” (priority 2020, published 2024).
In brackets after ≈: the same amount, converted by molar mass. Read-outs that look alike come from different tables or passages of the source.

Key:
[1] = molecular target: T1, full-length beta-Catenin (Uniprot ID P35222) (Homo sapiens, UniProt P35222); experiment: Fluorescence polarization IC50 (beta-catenin / 5FAM-TCF4 10-53 competition); format: binding
T1 construct: 10 nM full-length beta-Catenin (Uniprot ID P35222)
T1 sequence (P35222 1-781): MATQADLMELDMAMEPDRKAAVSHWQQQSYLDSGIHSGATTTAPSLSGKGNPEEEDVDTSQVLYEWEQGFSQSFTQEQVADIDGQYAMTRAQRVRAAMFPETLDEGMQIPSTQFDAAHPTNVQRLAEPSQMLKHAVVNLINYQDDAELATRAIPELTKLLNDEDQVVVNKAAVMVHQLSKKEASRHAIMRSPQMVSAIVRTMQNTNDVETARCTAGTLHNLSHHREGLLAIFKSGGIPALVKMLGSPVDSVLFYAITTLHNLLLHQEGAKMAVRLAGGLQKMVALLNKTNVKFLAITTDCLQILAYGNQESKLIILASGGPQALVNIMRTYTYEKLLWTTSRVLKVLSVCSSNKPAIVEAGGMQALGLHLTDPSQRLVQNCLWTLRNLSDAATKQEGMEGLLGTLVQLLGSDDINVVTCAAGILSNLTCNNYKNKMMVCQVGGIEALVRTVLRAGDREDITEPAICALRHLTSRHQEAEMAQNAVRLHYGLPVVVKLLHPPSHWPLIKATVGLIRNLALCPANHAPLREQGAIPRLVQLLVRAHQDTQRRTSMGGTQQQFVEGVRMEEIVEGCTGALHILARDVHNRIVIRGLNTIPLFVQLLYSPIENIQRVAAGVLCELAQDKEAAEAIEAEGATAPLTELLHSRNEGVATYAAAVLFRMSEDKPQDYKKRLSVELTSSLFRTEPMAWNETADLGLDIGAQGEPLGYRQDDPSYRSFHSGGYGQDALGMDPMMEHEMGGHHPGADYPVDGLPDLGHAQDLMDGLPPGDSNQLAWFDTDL

CHI Log D procedure = format: physicochemical; settings: for CHI Log D: pH 7.4
Solubility in PBS = format: physicochemical
Summary of the method: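 HPLC quantitation of peptide remaining in the PBS supernatant after ultracentrifugation, referenced to a 50 μM solution in DMSO.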

[2] = molecular target: T2, beta-catenin/TCF4 engagement (Homo sapiens, UniProt P35222); experiment: Nano-BRET target engagement assay (B-cat-Halo & TCF4-Luc in HEK293 cells); format: cell-based; settings: for IC50: absolute IC50, read-out: NanoBRET Abs IC50
T2 construct: expressed in transfected cells; host or cells: HEK293
T2 sequence (P35222 1-781): T1 sequence (P35222 1-781)

[3] = fluorescence polarization, read-out: beta-Catenin FP IC50

CC[C@H](C)[C@@H]1NC(=O)[C@H](CC(=O)O)NC(=O)[C@]2(CC=CCCCC3(CCCC=CCCCCCC[C@@](C)(C(=O)N[C@@H](Cc4ccccc4OC)C(=O)N[C@@H](Cc4csc5ccccc45)C(=O)N[C@@H](CCC(N)=O)C(N)=O)NC(=O)[C@H](CC(N)=O)NC(=O)[C@H](Cc4ccccc4)NC(=O)[C@H](C)NC(=O)[C@H](C)NC(=O)[C@H](CC(=O)O)NC(=O)[C@H](CC(=O)O)NC3=O)NC1=O)CCCN2C(C)=O (stereo partly drawn) [I-550, Ac-PL3-Asp-Ile-B5-Asp-Asp-Ala-Ala-Phe-Asn-S8-2OMeF-BztA-Gln-NH2]
IC50 [1, 3]: 30 nM | IC50 ([1]; read-out: FP EC50): 30 nM | CHI Log D (CHI Log D procedure): 2.343 | Solubility (Solubility in PBS): 50 µM (≈ 94.3 µg/mL) | IC50 [2]: 21400 nM

CC[C@H](C)[C@@H]1NC(=O)[C@H](CC(=O)O)NC(=O)[C@]2(CC=CCCCC3(CCCC=CCCCCCC[C@@](C)(C(=O)N[C@@H](Cc4ccccc4)C(=O)N[C@@H](Cc4csc5ccccc45)C(=O)N[C@@H](CCC(N)=O)C(N)=O)NC(=O)[C@H](CC(N)=O)NC(=O)[C@H](Cc4ccccc4)NC(=O)[C@H](C)NC(=O)[C@H](C)NC(=O)[C@H](CCC(=O)O)NC(=O)[C@H](CC(=O)O)NC3=O)NC1=O)CCCN2C(C)=O (stereo partly drawn) [I-557, Ac-PL3-Asp-Ile-B5-Asp-Glu-Ala-Ala-Phe-Asn-S8-Phe-BztA-Gln-NH2]
IC50 [1, 3]: 35 nM | chromatographic logD (CHI Log D procedure; pH 7.4, CHI Log D): 2.39 | Solubility (Solubility in PBS; Solubility (uM)): 47 µM (≈ 87.9 µg/mL) | IC50 [2]: 16900 nM

CC(=O)N1CCC[C@]12CC=CCCCC1(CCCC=CCCCCCC[C@@](C)(C(=O)N[C@@H](Cc3ccccc3)C(=O)N[C@@H](Cc3csc4ccccc34)C(=O)N[C@@H](CCC(N)=O)C(N)=O)NC(=O)[C@H](CC(N)=O)NC(=O)[C@H](Cc3ccccc3)NC(=O)[C@H](C)NC(=O)[C@H](C)NC(=O)[C@H](CC(=O)O)NC(=O)[C@H](CC(=O)O)NC1=O)NC(=O)[C@H](CC(C)C)NC(=O)[C@H](CC(=O)O)NC2=O (stereo partly drawn) [I-563, Ac-PL3-Asp-Leu-B5-Asp-Asp-Ala-Ala-Phe-Asn-S8-Phe-BztA-Gln-NH2]
IC50 [1, 3]: 19 nM | IC50 ([1]; read-out: FP EC50): 19 nM | CHI Log D (CHI Log D procedure): 2.317 | Solubility (Solubility in PBS): 50 µM (≈ 92.8 µg/mL) | IC50 [2]: 15700 nM

CC(=O)N1CCC[C@]12CC=CCCCC1(CCCC=CCCCCCC[C@@](C)(C(=O)N[C@@H](Cc3ccccc3)C(=O)N[C@@H](Cc3csc4ccccc34)C(=O)N[C@@H](Cc3c[nH]cn3)C(N)=O)NC(=O)[C@H](CC(N)=O)NC(=O)[C@H](Cc3ccccc3)NC(=O)[C@H](C)NC(=O)[C@H](C)NC(=O)[C@H](CC(=O)O)NC(=O)[C@H](CC(=O)O)NC1=O)NC(=O)[C@H](CC(C)C)NC(=O)[C@H](CC(=O)O)NC2=O (stereo partly drawn) [I-564, Ac-PL3-Asp-Leu-B5-Asp-Asp-Ala-Ala-Phe-Asn-S8-Phe-BztA-His-NH2]
IC50 [1, 3]: 36 nM | IC50 ([1]; read-out: FP EC50): 36 nM | CHI Log D (CHI Log D procedure): 2.374 | Solubility (Solubility in PBS): 47 µM (≈ 87.6 µg/mL) | IC50 [2]: > 20000 nM

CC(=O)N1CCC[C@]12CC=CCCCC1(CCCC=CCCCCCC[C@@](C)(C(=O)N[C@@H](Cc3ccccc3)C(=O)N[C@@H](Cc3csc4ccccc34)C(=O)N[C@@H](Cc3c[nH]cn3)C(N)=O)NC(=O)[C@H](CC(N)=O)NC(=O)[C@H](Cc3ccccc3)NC(=O)[C@H](C)NC(=O)[C@H](C)NC(=O)[C@H](CC(=O)O)NC(=O)[C@H](CC(=O)O)NC1=O)NC(=O)[C@H](CC(C)C)NC(=O)[C@H](CC(=O)O)NC2=O (stereo partly drawn) [I-565, Ac-PL3-Asp-Leu-B5-Asp-Asp-Ala-Ala-Phe-Asn-S8-Phe-BztA-His-NH2]
IC50 [1, 3]: 13 nM | IC50 ([1]; read-out: FP EC50): 13 nM | CHI Log D (CHI Log D procedure): 2.435 | Solubility (Solubility in PBS): 26 µM (≈ 48.5 µg/mL) | IC50 [2]: 26000 nM

CC(=O)N1CCC[C@]12CC=CCCCC1(CCCC=CCCCCCC[C@@](C)(C(=O)N[C@@H](Cc3ccccc3)C(=O)N[C@@H](Cc3csc4ccccc34)C(=O)N[C@@H](CCC(N)=O)C(N)=O)NC(=O)[C@H](CC(N)=O)NC(=O)[C@H](Cc3ccccc3)NC(=O)[C@H](C)NC(=O)[C@H](C)NC(=O)[C@H](CC(=O)O)NC(=O)[C@H](CC(=O)O)NC1=O)NC(=O)[C@H](C(C)C)NC(=O)[C@H](CC(=O)O)NC2=O (stereo partly drawn) [I-567, Ac-PL3-Asp-Val-B5-Asp-Asp-Ala-Ala-Phe-Asn-S8-Phe-BztA-Gln-NH2]
IC50 [1, 3]: 37 nM | IC50 ([1]; read-out: FP EC50): 37 nM | CHI Log D (CHI Log D procedure): 2.243 | Solubility (Solubility in PBS): 50 µM (≈ 92.1 µg/mL) | inhibition at 10 µM ([2]; HEK293, @ 10 uM, read-out: NanoBRET % inh @ 10 uM): 8.9%

CC[C@@H]1NC(=O)[C@H](CC(=O)O)NC(=O)[C@]2(CC=CCCCC3(CCCC=CCCCCCC[C@@](C)(C(=O)N[C@@H](Cc4ccccc4)C(=O)N[C@@H](Cc4csc5ccccc45)C(=O)N[C@@H](Cc4c[nH]cn4)C(N)=O)NC(=O)[C@H](CCC(N)=O)NC(=O)[C@H](Cc4ccccc4)NC(=O)[C@H](C)NC(=O)[C@H](C)NC(=O)[C@H](CCC(=O)O)NC(=O)[C@H](CC(=O)O)NC3=O)NC1=O)CCCN2C(C)=O (stereo partly drawn) [I-571, Ac-PL3-Asp-Abu-B5-Asp-Glu-Ala-Ala-Phe-Gln-S8-Phe-BztA-His-NH2]
IC50 [1, 3]: 32 nM | IC50 ([1]; read-out: FP EC50): 32 nM | CHI Log D (CHI Log D procedure): 2.245 | Solubility (Solubility in PBS): 24 µM (≈ 44.7 µg/mL) | IC50 [2]: 15600 nM

CC[C@@H]1NC(=O)[C@H](CC(=O)O)NC(=O)[C@]2(CC=CCCCC3(CCCC=CCCCCCC[C@@](C)(C(=O)N[C@@H](Cc4ccccc4)C(=O)N[C@@H](Cc4csc5ccccc45)C(=O)N[C@@H](CCC(N)=O)C(N)=O)NC(=O)[C@H](CC(N)=O)NC(=O)[C@H](Cc4ccccc4)NC(=O)[C@H](C)NC(=O)[C@H](C)NC(=O)[C@H](CC(=O)O)NC(=O)[C@H](CC(=O)O)NC3=O)NC1=O)CCCN2C(C)=O (stereo partly drawn) [I-573, Ac-PL3-Asp-Abu-B5-Asp-Asp-Ala-Ala-Phe-Asn-S8-Phe-BztA-Gln-NH2]
IC50 [1, 3]: 36 nM | IC50 ([1]; read-out: FP EC50): 36 nM | CHI Log D (CHI Log D procedure): 2.116 | Solubility (Solubility in PBS): 49 µM (≈ 89.5 µg/mL) | IC50 [2]: 33300 nM

CC[C@@H]1NC(=O)[C@H](CC(=O)O)NC(=O)[C@]2(CC=CCCCC3(CCCC=CCCCCCC[C@@](C)(C(=O)N[C@@H](Cc4ccccc4)C(=O)N[C@@H](Cc4csc5ccccc45)C(=O)N[C@@H](Cc4c[nH]cn4)C(N)=O)NC(=O)[C@H](CC(N)=O)NC(=O)[C@H](Cc4ccccc4)NC(=O)[C@H](C)NC(=O)[C@H](C)NC(=O)[C@H](CC(=O)O)NC(=O)[C@H](CC(=O)O)NC3=O)NC1=O)CCCN2C(C)=O (stereo partly drawn) [I-574, Ac-PL3-Asp-Abu-B5-Asp-Asp-Ala-Ala-Phe-Asn-S8-Phe-BztA-His-NH2]
IC50 [1, 3]: 36 nM | IC50 ([1]; read-out: FP EC50): 36 nM | CHI Log D (CHI Log D procedure): 2.16 | Solubility (Solubility in PBS): 48 µM (≈ 88.1 µg/mL) | IC50 [2]: > 20000 nM

CC(=O)N1CCC[C@]12CC=CCCCC1(CCCC=CCCCCCC[C@@](C)(C(=O)N[C@@H](Cc3ccccc3)C(=O)N[C@@H](Cc3csc4ccccc34)C(=O)N[C@@H](CCC(N)=O)C(N)=O)NC(=O)[C@H](CC(N)=O)NC(=O)[C@H](Cc3ccccc3)NC(=O)[C@H](C)NC(=O)[C@H](C)NC(=O)[C@H](CCC(=O)O)NC(=O)[C@H](CC(=O)O)NC1=O)NC(=O)[C@H](CC(C)C)NC(=O)[C@H](CC(=O)O)NC2=O (stereo partly drawn) [I-576, Ac-PL3-Asp-Leu-B5-Asp-Glu-Ala-Ala-Phe-Asn-S8-Phe-BztA-Gln-NH2]
IC50 [1, 3]: 23 nM | IC50 ([1]; read-out: FP EC50): 23 nM | CHI Log D (CHI Log D procedure): 2.348 | Solubility (Solubility in PBS): 46 µM (≈ 86 µg/mL) | IC50 [2]: 11100 nM

CC(=O)N1CCC[C@]12CC=CCCCC1(CCCC=CCCCCCC[C@@](C)(C(=O)N[C@@H](Cc3ccccc3)C(=O)N[C@@H](Cc3csc4ccccc34)C(=O)N[C@@H](CCC(N)=O)C(N)=O)NC(=O)[C@H](CC(N)=O)NC(=O)[C@H](Cc3ccccc3)NC(=O)[C@H](C)NC(=O)[C@H](C)NC(=O)[C@H](CCC(=O)O)NC(=O)[C@H](CC(=O)O)NC1=O)NC(=O)[C@H](CC(C)C)NC(=O)[C@H](CC(=O)O)NC2=O (stereo partly drawn) [I-577, Ac-PL3-Asp-Leu-B5-Asp-Glu-Ala-Ala-Phe-Asn-S8-Phe-BztA-Gln-NH2]
IC50 [1, 3]: 13 nM | IC50 ([1]; read-out: FP EC50): 13 nM | CHI Log D (CHI Log D procedure): 2.376 | Solubility (Solubility in PBS): 47 µM (≈ 87.9 µg/mL) | IC50 [2]: 10400 nM
